Laboratory results reported in patent publication US11648254B2 (Kumquat Biosciences Inc., priority 2021, dated 2023).
Where two headings read alike, the source gives them in different places.

Assays:
[1] = In vitro plasma protein binding (PPB); format: in vitro ADME; conditions: percentage of free/unbound compound
[2] = target: SOS1 (Homo sapiens (Human), UniProt Q07889); test: Ras-SOS interaction assay (HTRF); format: biochemical
[3] = tested on: NCI-H1975 cells (EGFR T790M L858R); test: EGFR-SOS cellular inhibition assay (CellTiter-Glo, 3D); format: cell-based; conditions: Homo sapiens
[4] = tested on: MIA PaCa-2 cells (K-Ras G12C); test: Ras-SOS cellular growth inhibition assay (CellTiter-Glo, 3D); format: cell-based; conditions: Homo sapiens
Method in brief: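 Growth read by CellTiter-Glo luminescence about 5 days after dosing with 3-fold dilutions (9 points), added one day post-seeding. Cells: MIA PaCa-2, 3D culture on ultra-low-attachment surface, medium DMEM/Ham's F12 plus 10% FCS and 2.5% horse serum; IC50 by four-parameter fit.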

[5] = K-RasG13D utilized, read-out: IC50 inhibition of SOS
[6] = K-RasG13D, read-out: IC50 value against SOS1
[7] = 120 h, NCI-H1975, 3D proliferation, about 5 days, read-out: Bio-Cell-Prolif-3D (H1975 IC50)
[8] = NCI-H1975, EGFR T790M L858R, read-out: IC50 in inhibiting growth of NCI-H1975 cell line
[9] = MIA PaCa-2, 120 h, MIA PaCa-2, 3D proliferation, about 5 days, read-out: Bio-Cell-Prolif-3D (MiaPaca2 IC50)
[10] = MIA PaCa-2, MIA PaCa-2, read-out: IC50 in inhibiting MIA PaCa-2 cell growth

Sequence of SOS1 (Q07889 564-1049): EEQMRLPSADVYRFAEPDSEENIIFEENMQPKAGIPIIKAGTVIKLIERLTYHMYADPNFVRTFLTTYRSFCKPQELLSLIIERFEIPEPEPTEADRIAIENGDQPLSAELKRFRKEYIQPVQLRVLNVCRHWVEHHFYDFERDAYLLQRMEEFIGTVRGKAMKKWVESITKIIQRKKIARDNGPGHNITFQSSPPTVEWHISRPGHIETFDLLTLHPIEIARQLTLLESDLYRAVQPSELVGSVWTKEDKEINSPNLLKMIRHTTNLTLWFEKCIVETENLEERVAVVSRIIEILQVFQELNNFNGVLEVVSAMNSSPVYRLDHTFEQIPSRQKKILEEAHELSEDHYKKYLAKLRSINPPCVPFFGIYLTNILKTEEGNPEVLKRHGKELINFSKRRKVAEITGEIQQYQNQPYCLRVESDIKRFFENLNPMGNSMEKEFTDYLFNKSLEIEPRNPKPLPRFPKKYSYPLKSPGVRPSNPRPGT

## COc1nc2ncnc(N[C@H](C)c3cccc(C(F)(F)F)c3F)c2cc1C1CCN(C(C)C)CC1 [Compound 162, (R)-N-(1-(2-fluoro-3-(trifluoromethyl)phenyl)ethyl)-6-(1-isopropylpiperidin-4-yl)-7-methoxypyrido[2,3-d] pyrimidin-4-amine]
[1]
  DMPK-invitro-PPB (Mouse Unbound) [%]: 2.19%
[2]; [5]
  IC50: < 0.1 µM
[2]; [6]
  IC50: < 0.05 µM
[3]; [7]
  IC50: ≤ 1 µM
[3]; [8]
  IC50: < 0.5 µM
[4]; [9]
  IC50: ≤ 1 µM

## COc1nc2ncnc(N[C@H](C)c3cccc(C(C)(F)F)c3F)c2cc1C1CCS(=O)(=O)CC1 [Compound 267, (R)-4-(4-((1-(3-(1,1-difluoroethyl)-2-fluorophenyl)ethyl)amino)-7-methoxypyrido[2,3-d]pyrimidin-6-yl)tetrahydro-2H-thiopyran 1,1-dioxide]
[1]
  DMPK-invitro-PPB (Mouse Unbound) [%]: 5.6%
[2]; [5]
  IC50: < 0.1 µM
[2]; [6]
  IC50: < 0.05 µM
[3]; [7]
  IC50: ≤ 1 µM
[3]; [8]
  IC50: < 0.5 µM
[4]; [9]
  IC50: ≤ 1 µM
[4]; [10]
  IC50: < 0.5 µM

## COc1nc2ncnc(N[C@H](C)c3cccc(C(F)(F)F)c3F)c2cc1N1CCS(=O)(=O)CC1 [Compound 308, (R)-4-(4-((1-(2-fluoro-3-(trifluoromethyl)phenyl)ethyl)amino)-7-methoxypyrido[2,3-d]pyrimidin-6-yl)thiomorpholine 1,1-dioxide]
[1]
  DMPK-invitro-PPB (Mouse Unbound) [%]: 2.91%
[2]; [5]
  IC50: < 0.1 µM
[2]; [6]
  IC50: < 0.05 µM
[3]; [7]
  IC50: ≤ 1 µM
[3]; [8]
  IC50: < 0.5 µM
[4]; [9]
  IC50: ≤ 1 µM
[4]; [10]
  IC50: < 0.5 µM

## CCN1CCC(c2cc3c(N[C@H](C)c4cccc(C(F)(F)F)c4C)nc(C)nc3nc2OC)CC1 [Compound 351, (R)-6-(1-ethylpiperidin-4-yl)-7-methoxy-2-methyl-N-(1-(2-methyl-3-(trifluoromethyl)phenyl)ethyl)pyrido [2,3-d]pyrimidin-4-amine]
[1]
  DMPK-invitro-PPB (Mouse Unbound) [%]: 0.22%
[2]; [5]
  IC50: < 0.1 µM
[2]; [6]
  IC50: < 0.05 µM
[3]; [7]
  IC50: ≤ 1 µM
[3]; [8]
  IC50: < 0.5 µM
[4]; [9]
  IC50: ≤ 1 µM
[4]; [10]
  IC50: < 0.5 µM

## COc1nc2nc(C)nc(N[C@H](C)c3cccc(C(F)(F)C(C)(C)O)c3)c2cc1N1CCN(C(C)C)CC1 [Compound 325, (R)-1,1-difluoro-1-(3-(1-((6-(4-isopropylpiperazin-1-yl)-7-methoxy-2-methylpyrido[2,3-d]pyrimidin-4-yl)amino)ethyl)phenyl)-2-methylpropan-2-ol]
[1]
  DMPK-invitro-PPB (Mouse Unbound) [%]: 12.8%
[2]; [5]
  IC50: < 0.1 µM
[2]; [6]
  IC50: < 0.05 µM
[3]; [7]
  IC50: ≤ 1 µM
[3]; [8]
  IC50: < 0.5 µM
[4]; [9]
  IC50: ≤ 1 µM
[4]; [10]
  IC50: < 0.5 µM

## COc1nc2nc(C)nc(N[C@H](C)c3cccc(C(F)(F)F)c3F)c2cc1C1CCN(C2CCOCC2)CC1 [Compound 344, (R)-N-(1-(2-fluoro-3-(trifluoromethyl)phenyl)ethyl)-7-methoxy-2-methyl-6-(1-(tetrahydro-2H-pyran-4-yl)piperidin-4-yl)pyrido[2,3-d]pyrimidin-4-amine]
[1]
  DMPK-invitro-PPB (Mouse Unbound) [%]: 0.29%
[2]; [5]
  IC50: < 0.1 µM
[2]; [6]
  IC50: < 0.05 µM

## COc1nc2ncnc(N[C@H](C)c3cccc(C(F)F)c3F)c2cc1N1CCN(C(C)C)CC1 [Compound 316, (R)-N-(1-(3-(difluoromethyl)-2-fluorophenyl)ethyl)-6-(4-isopropylpiperazin-1-yl)-7-methoxypyrido[2,3-d]pyrimidin-4-amine]
[1]
  DMPK-invitro-PPB (Mouse Unbound) [%]: 9.83%
[2]; [5]
  IC50: < 0.1 µM
[2]; [6]
  IC50: < 0.05 µM
[3]; [7]
  IC50: ≤ 1 µM
[3]; [8]
  IC50: < 0.5 µM
[4]; [9]
  IC50: 1 to 10 µM

## COc1nc2nc(C)nc(N[C@H](C)c3cccc(C(F)F)c3F)c2cc1N1CCS(=O)(=O)CC1 [Compound 131, (R)-4-(4-((1-(3-(difluoromethyl)-2-fluorophenyl)ethyl)amino)-7-methoxy-2-methylpyrido[2,3-d]pyrimidin-6-yl)thiomorpholine 1,1-dioxide]
[1]
  DMPK-invitro-PPB (Mouse Unbound) [%]: 4.01%
[2]; [5]
  IC50: < 0.1 µM
[2]; [6]
  IC50: < 0.05 µM
[3]; [7]
  IC50: ≤ 1 µM
[3]; [8]
  IC50: < 0.5 µM
[4]; [9]
  IC50: ≤ 1 µM
[4]; [10]
  IC50: < 0.5 µM

## COc1nc2ncnc(N[C@H](C)c3cccc(C(F)F)c3F)c2cc1N1CCN(C)CC1 [Compound 156, (R)-N-(1-(3-(difluoromethyl)-2-fluorophenyl)ethyl)-7-methoxy-6-(4-methylpiperazin-1-yl)pyrido[2,3-d] pyrimidin-4-amine]
[1]
  DMPK-invitro-PPB (Mouse Unbound) [%]: 14.53%
[2]; [5]
  IC50: < 0.1 µM
[2]; [6]
  IC50: < 0.05 µM
[3]; [7]
  IC50: ≤ 1 µM
[3]; [8]
  IC50: < 0.5 µM
[4]; [9]
  IC50: ≤ 1 µM
[4]; [10]
  IC50: < 0.5 µM

## COc1nc2ncnc(N[C@H](C)c3cccc(C(F)(F)F)c3F)c2cc1C1CCN(C2CCOCC2)CC1 [Compound 164, (R)-N-(1-(2-fluoro-3-(trifluoromethyl)phenyl)ethyl)-7-methoxy-6-(1-(tetrahydro-2H-pyran-4-yl)piperidin-4-yl)pyrido[2,3-d]pyrimidin-4-amine]
[1]
  DMPK-invitro-PPB (Mouse Unbound) [%]: 1.6%
[2]; [5]
  IC50: < 0.1 µM
[2]; [6]
  IC50: < 0.05 µM
[3]; [7]
  IC50: ≤ 1 µM
[3]; [8]
  IC50: < 0.5 µM
[4]; [9]
  IC50: ≤ 1 µM
[4]; [10]
  IC50: < 0.5 µM

## COc1nc2ncnc(N[C@H](C)c3cccc(C(F)(F)C(C)(C)O)c3)c2cc1N1CCN(C(C)C)CC1 [Compound 202, (R)-1,1-difluoro-1-(3-(1-((6-(4-isopropylpiperazin-1-yl)-7-methoxypyrido [2,3-d]pyrimidin-4-yl)amino)ethyl)phenyl)-2-methylpropan-2-ol]
[1]
  DMPK-invitro-PPB (Mouse Unbound) [%]: 19.85%
[2]; [5]
  IC50: < 0.1 µM
[2]; [6]
  IC50: < 0.05 µM
[3]; [7]
  IC50: ≤ 1 µM
[3]; [8]
  IC50: < 0.5 µM
[4]; [9]
  IC50: ≤ 1 µM
[4]; [10]
  IC50: < 0.5 µM

## COc1nc2nc(C)nc(N[C@H](C)c3cccc(C(F)(F)F)c3F)c2cc1N1CCN(C(C)C)CC1 [Compound 211, (R)-N-(1-(2-fluoro-3-(trifluoromethyl)phenyl)ethyl)-6-(4-isopropylpiperazin-1-yl)-7-methoxy-2-methylpyrido[2,3-d]pyrimidin-4-amine]
[1]
  DMPK-invitro-PPB (Mouse Unbound) [%]: 0.41%
[2]; [5]
  IC50: < 0.1 µM
[2]; [6]
  IC50: < 0.05 µM
[3]; [7]
  IC50: ≤ 1 µM
[3]; [8]
  IC50: < 0.5 µM
[4]; [9]
  IC50: ≤ 1 µM
[4]; [10]
  IC50: < 0.5 µM

## COc1nc2ncnc(N[C@H](C)c3cccc(C(F)(F)F)c3C)c2cc1N1CCN(C(C)C)CC1 [Compound 376, (R)-6-(4-isopropylpiperazin-1-yl)-7-methoxy-N-(1-(2-methyl-3-(trifluoromethyl)phenyl)ethyl)pyrido [2,3-d]pyrimidin-4-anune]
[1]
  DMPK-invitro-PPB (Mouse Unbound) [%]: 0.91%
[2]; [5]
  IC50: < 0.1 µM
[2]; [6]
  IC50: < 0.05 µM
[3]; [7]
  IC50: ≤ 1 µM
[3]; [8]
  IC50: < 0.5 µM
[4]; [9]
  IC50: ≤ 1 µM
[4]; [10]
  IC50: < 0.5 µM

## COc1nc2nc(C)nc(N[C@H](C)c3cccc(C(F)(F)F)c3C)c2cc1N1CCN(C2CCOCC2)CC1 [Compound 378, (R)-7-methoxy-2-methyl-N-(1-(2-methyl-3-(trifluoromethyl)phenyl)ethyl)-6-(4-(tetrahydro-2H-pyran-4-yl)piperazin-1-yl)pyrido[2,3-d]pyrimidin-4-amine]
[1]
  DMPK-invitro-PPB (Mouse Unbound) [%]: 0.14%
[2]; [5]
  IC50: < 0.1 µM
[2]; [6]
  IC50: < 0.05 µM
[3]; [7]
  IC50: ≤ 1 µM
[3]; [8]
  IC50: < 0.5 µM
[4]; [9]
  IC50: ≤ 1 µM
[4]; [10]
  IC50: < 0.5 µM

## COc1nc2nc(C)nc(N[C@H](C)c3cccc(C(F)(F)F)c3C)c2cc1C1CCN(C2CCOCC2)CC1 [Compound 358, (R)-7-methoxy-2-methyl-N-(1-(2-methyl-3-(trifluoromethyl)phenyl)ethyl)-6-(1-(tetrahydro-2H-pyran-4-yl)piperidin-4-yl)pyrido [2,3-d]pyrimidin-4-amine]
[1]
  DMPK-invitro-PPB (Mouse Unbound) [%]: 0.065%
[2]; [5]
  IC50: < 0.1 µM
[2]; [6]
  IC50: < 0.05 µM

## COc1nc2nc(C)nc(N[C@H](C)c3cccc(C(F)F)c3F)c2cc1N1CCN(C(C)C)CC1 [Compound 109, (R)-N-(1-(3-(difluoromethyl)-2-fluorophenyl)ethyl)-6-(4-isopropylpiperazin-1-yl)-7-methoxy-2-methylpyrido[2,3-d] pyrimidin-4-amine]
[1]
  DMPK-invitro-PPB (Mouse Unbound) [%]: 3.51%
[2]; [5]
  IC50: < 0.1 µM
[2]; [6]
  IC50: < 0.05 µM
[3]; [7]
  IC50: ≤ 1 µM
[3]; [8]
  IC50: < 0.5 µM
[4]; [9]
  IC50: ≤ 1 µM
[4]; [10]
  IC50: < 0.5 µM

## COc1nc2ncnc(N[C@H](C)c3cccc(C(F)(F)F)c3C)c2cc1C1CCS(=O)(=O)CC1 [Compound 373, (R)-4-(7-methoxy-4-((1-(2-methyl-3-(trifluoromethyl)phenyl)ethyl)amino)pyrido[2,3-d]pyrimidin-6-yl)tetrahydro-2H-thiopyran 1,1-dioxide]
[1]
  DMPK-invitro-PPB (Mouse Unbound) [%]: 2.93%
[2]; [6]
  IC50: < 0.05 µM
[3]; [7]
  IC50: ≤ 1 µM
[4]; [9]
  IC50: ≤ 1 µM
[4]; [10]
  IC50: < 0.5 µM

## COc1nc2nc(C)nc(N[C@H](C)c3cccc(C(C)(F)F)c3F)c2cc1C1CCS(=O)(=O)CC1 [Compound 150, (R)-4-(4-((1-(3-(1,1-difluoroethyl)-2-fluorophenyl)ethyl)amino)-7-methoxy-2-methylpyrido[2,3-d]pyrimidin-6-yl)tetrahydro-2H-thiopyran 1,1-dioxide]
[1]
  DMPK-invitro-PPB (Mouse Unbound) [%]: 2.65%
[2]; [6]
  IC50: < 0.05 µM
[3]; [7]
  IC50: ≤ 1 µM
[3]; [8]
  IC50: < 0.5 µM
[4]; [9]
  IC50: ≤ 1 µM
[4]; [10]
  IC50: < 0.5 µM

## COc1nc2nc(C)nc(N[C@H](C)c3cccc(C(F)F)c3F)c2cc1N1CCN(C)CC1 [Compound 103, (R)—N-(1-(3-(difluoromethyl)-2-fluorophenyl)ethyl)-7-methoxy-2-methyl-6-(4-methylpiperazin-1-yl)pyrido[2,3-d]pyrimidin-4-amine]
[1]
  DMPK-invitro-PPB (Mouse Unbound) [%]: 5.15%
[2]; [5]
  IC50: < 0.1 µM
[3]; [8]
  IC50: < 0.5 µM
